Tests used:
human iTCR [1] = assay: In vitro activation of human iTCR through Jurkat reporter cell line (JiNKT, GFP under NFkB promoter) with drug-loaded BWSTIM cells; type: cell-based; conditions: 1 μg/mL; for GFP expression compared to the negative control: BWSTIM + JiNKT, 24 hours, FIG. 6A
Protocol: In order to determine the human iTCR activation potential induced by the compounds described herein, a jurkat cell line (JiNKT) was transfected with the human iTCR, and GFP under the NFkB promoter (cell line licensed from the Medical University of Vienna). A BWS147 cell line (BWSTIM) was also transfected with CD80 and CD1d to act as the antigen-presenting cell.
(§1) DCD molecules or α-GalCer were both dissolved in DMSO at a 5 mg/mL stock solution. BWSTIM cells were loaded with DCD molecules or α-GalCer at varying concentrations for 4 hours at 37° C. at a concentration of 20 k cells/well in 200 μL of media in a u-bottom 96 well dish. BWSTIM cells were washed 2× with media, then incubated with JiNKT cells at a concentration of 80 k cells/well in a u-bottom 96 well dish. Cells were co-cultured for 18 to 24 hours. The percentage of cells expressing high levels of GFP was measured through flow cytometry (after gating out the mCD45+ BWSTIM cells).
(§2) A jurkat cell line (JiNKT) was transfected with the human iTCR, and GFP under the NFkB promoter. A BWS147 cell line (BWSTIM) was also transfected with CD80 and CD1d to act as the antigen-presenting cell. A mouse iNKT hybridoma cell line (DN3.2) was also used as the iNKT. […]
as §1, with “GVK” for “DCD”, “compounds” for “DCD molecules or α-GalCer at varying concentrations”, “for” for “for 18 to”, “cytometry. 1 μg/mL of molecule GVK1a, GVK1b, GVK1c, or GVK1f was incubated with BWSTIM+JiNKT, and compared to α-GalCer.” for “cytometry (after gating out the mCD45+ BWSTIM cells).”

primary human iNKT cells = assay: Cytokine secretion of primary human iNKT cells co-cultured with drug-loaded BWSTIM cells; type: cell-based; conditions: for secretion of IFNγ / secretion of IL-4 / secretion of IL-6 / secretion of TNFα: GVK compounds vs absence of drug loading, α-GalCer vs GVK compounds, media collected 2 days later, FIG. 6C
Protocol: In order to determine the activation profile induced by the compounds described herein, primary human iNKT cells were co-cultured with drug-loaded BWSTIM cells.
Day 0: PBMCs were isolated from human blood using the STEMCELL TECHNOLOGIES™ SepMate™ PBMC isolation system. iNKT cells were then selected using the Miltenyi NKT magnetic cell separation kit.
Day 2: DCD molecules or α-GalCer were both dissolved in DMSO at a 5 mg/mL stock solution. BWSTIM cells were fixed with mitomycin C, then loaded with 10 μg/mL of DCD molecules or α-GalCer for 4 hours at 37° C. at a concentration of 20 k cells/well in 200 μL of media in a u-bottom 96 well dish. Cells were co-cultured with 80 k 6B11+ selected primary human iNKT cells.
D4: Media was collected. Cytokines were measured using the Satorious 4Plex kit on the iQue3 cytometer.
GVK molecules or α-GalCer were both dissolved in DMSO at a 5 mg/mL stock solution. BWSTIM cells were loaded with compounds for 4 hours at 37° C. at a concentration of 20 k cells/well in 200 μL of media in a u-bottom 96 well dish. Cells were co-cultured with 100 k 6B11+ selected primary human iNKT cells. Media was collected 2 days later. Cytokines were measured using the Satorious 4Plex kit on the iQue3 cytometer.

mouse iTCR = assay: In vitro activation of mouse iTCR, DN3.2 iNKT hybridoma with drug-loaded BWSTIM cells, IL-2 secretion; type: cell-based; conditions: 48 hours co-culture; FIG. 6B
Protocol: In order to determine the mouse iTCR activation potential induced by the compounds described herein, a mouse iNKT hybridoma cell line (DN3.2) from the La Jolla Institute for Allergy and Immunology were used as the iNKT. The BWS147 cell line (BWSTIM) with CD80 and CD1d acted as the antigen-presenting cell.
(§3) DCD molecules or α-GalCer were both dissolved in DMSO at a 5 mg/mL stock solution. BWSTIM cells were loaded with DCD molecules or α-GalCer of varying concentrations for 4 hours at 37° C. at a concentration of 20 k cells/well in 200 μL of media in a u-bottom 96 well dish. BWSTIM cells were washed 2× with media, then incubated with DN3.2 cells at a concentration of 80 k cells/well in a u-bottom 96 well dish. Cells were co-cultured for 48 hours. Media was collected and IL-2 was measured using the CisBio HTRF ELISA detection kit.
as §2
as §3, with “GVK” for “DCD”, “compounds” for “DCD molecules or α-GalCer of varying concentrations”

DN3.2 = assay: IL-2 Secretion (A20 + DN3.2); type: cell-based, mouse
iNKT cells = assay: Diet induced obesity (HFD) mouse model: iNKT cell expansion in spleen or eWAT; type: in vivo, C57BL/6J mice; conditions: HFD mice, I.P. 2 g, four days post-injection
Protocol: (§4) Senescence is a feature of pre-adipocytes in obese individuals. To study the efficacy of the molecules described herein in decreasing senescence in fat, a diet induced obesity high fat diet (HFD) mouse model was used. 22-week-old HFD mice were injected with α-GalCer as a control and compared with the compounds of the present disclosure. The blood and spleen (or adipose tissue) were collected to measure iNKT activation and expansion, respectively. Cells in the eWAT (adipose tissue) were also collected and measured for % senescent cells. HFD mice were compared to non-HFD (normal diet) mice.
(§5) 22-week-old C57BL/6J mice on a chow or high-fat diet (HFD) were injected (I.P) with […] of α-GalCer, compound DCD-101 or compound DCD-154. Molecules were either dissolved in DMSO at a 5 mg/mL stock solution, or formulated into liposomes through thin-film rehydration, then extrusion through 200 nm filters. Liposome-based formulations were constructed using soy phosphatidylcholine, cholesterol, and DCD or α-GalCer in a 2:1:0.15 ratio. Two or twenty hours post-injection, blood was collected from the tail to measure the level of IFNγ using ELISA. Four days post-injection, mice were sacrificed to collect eWAT or spleen. Spleen was used to measure the number of iNKT cells, and eWAT was used to measure the number of iNKT cells and senescent cells using flow cytometry. iNKT cells were identified in the digested adipose tissue by gating live cells and mouse CD1d-α-GalCer tetramer+ cells. Senescent cells were measured withing the processes adipose tissue by selecting mCD45− cells, and C12FDG^HIGH cells.

senescent cells in eWAT = assay: Diet induced obesity (HFD) mouse model: senescent cells (C12FDG+) in eWAT; type: in vivo, C57BL/6J mice; conditions: HFD mice, four days post-injection; FIG. 5E
Protocol: as §4, §5

human iTCR [2] = assay: % GFP hiNKT binding (recombinant protein CD1d + JiNKT); type: cell-based
senescent cells = assay: Selective killing of senescent cells in vitro by activated human iNKT cells; type: cell-based
Protocol: Human iNKT cells were isolated and activated by incubation with α-GalCer. Activated iNKT cells were combined with samples containing healthy cells and senescent cells.

IFNγ = assay: Diet induced obesity (HFD) mouse model: serum IFNγ (ELISA); type: in vivo, C57BL/6J mice
Protocol: as §4, §5

| SMILES | GFP expression compared to the negative control (human iTCR [1]) | % GFP hiNKT binding (BWSTIM + JiNKT) 1 μg/mL, away from negative control (human iTCR [1]; difference from negative control) | secretion of IFNγ (primary human iNKT cells) | secretion of IL-4 (primary human iNKT cells) | secretion of IL-6 (primary human iNKT cells) | secretion of TNFα (primary human iNKT cells) | Primary iNKT cytokine release (primary human iNKT cells; IL-4, IL-6, IFNγ or TNFα) | expression of IL-2 in the DN3.2 cell line when loaded on BWSTIM CD1d (mouse iTCR) | IL-2 Secretion (A20 + DN3.2) (DN3.2) | expansion of immune (iNKT) cells in HFD mouse spleen (iNKT cells; FIG. 5A) | expansion of immune (iNKT) cells in HFD mouse eWAT (iNKT cells; percent iNKT cells of live cells, FIG. 5B) | accumulation of senescent cells (C12FDG+) in eWAT (senescent cells in eWAT) | % GFP hiNKT binding (recombinant protein CD1d + JiNKT) (human iTCR [2]) | % GFP hiNKT binding (BWSTIM + JiNKT) 1 μg/mL (human iTCR [1]; % GFP) | killing of senescent vs non-senescent cells by iNKT cells activated by the compound (senescent cells; evaluated after 8 hours and 18 hours, FIG. 7B) | presence of senescent vs non-senescent cells on incubation with iNKT cells activated by the compound (senescent cells; over a period of 18 hours, FIG. 7A) | levels of IFNγ in the HFD model (IFNγ; twenty hours post injection, FIG. 5D) | levels of serum IFNγ in the HFD model (IFNγ; two hours post injection, FIG. 5C) |
| --- | --- | --- | --- | --- | --- | --- | --- | --- | --- | --- | --- | --- | --- | --- | --- | --- | --- | --- |
| CCCCCCCCCCCCCCCCCCCCCCCCCC(=O)N[C@@H](CCC1OC(CO)C(O)C(O)C1O)[C@@H](O)[C@H](O)CCCCCCCCCCCCCC (some centres unmarked) [GVK1b] | did not induce GFP expression higher than the negative control | % <5 away from | did not increase secretion | did not increase secretion | did not increase secretion | did not increase secretion | No activation | did not induce expression of IL-2 | Does not |  |  |  |  |  |  |  |  |  |
| CCCCCCCCCCCCCCCCCCCCCCCCCC(=O)N[C@@H](CO[C@H]1O[C@H](CO)[C@H](O)[C@H](O)[C@H]1O)[C@H](O)[C@H](O)CCCCCCCCCCCCCC [α-GalCer, Alpha-galactosylceramide, reference compound] | induction remained high |  | significantly greater increase in the secretion | significantly greater increase in the secretion | significantly greater increase in the secretion | significantly greater increase in the secretion |  |  |  | caused expansion of immune cells in HFD mouse spleen | caused expansion of immune cells in HFD mouse eWAT | effective in decreasing the accumulation of senescent cells in eWAT | % 30 | % 40-70 | senescent cells were selectively killed whereas non-senescent cells were maintained | reduction in the presence of senescent cells over time whereas non-senescent cells were maintained | significantly increased levels of IFNγ | significantly increased levels of IFNγ |

Source: patent US12655171B2, “Compounds for activating invariant natural killer T-cells and methods of use in eliminating inflammatory senescent cells” (Deciduous Therapeutics, Inc., priority 2021, dated 2026)
